PMC8118404, “Synergistic effect of the anti-PD-1 antibody with blood stable and reduction sensitive curcumin micelles on colon cancer” (Drug Delivery, 2021)

Assays:
[1] = Pharmacokinetics after i.v. administration in SD rats; type: in vivo; conditions: Sprague-Dawley, rat, plasma, iv
Description: Nine SD rats were randomly divided into three groups (three rats for each group), receiving s-Cur, Cur/NCMs, and Cur/DCMs. Following the intravenous (i.v.) administration of the three curcumin formulations (20 mg/kg), 0.1 mL of the blood samples was collected from the tail vein at predetermined time intervals. The blood samples were centrifuged for 6 min at 5867×g to obtain the plasma. Then, the curcumin concentrations in the plasma were analyzed using a liquid chromatography mass spectrometer (LCMS-2020) equipped with a Shimadzu UV-visible spectrophotometer (Columbia, MD). The detection limitation of the equipment was 1 ng/mL. We employed the non-compartmental analysis in WinNonlin software V6.2.1 to calculate major pharmacokinetic parameters.

[2] = system: MC-38 colon tumor; design: method as in our previous research (data not shown); conditions: in vivo; ref our previous research (data not shown); cited from earlier work
[3] = system: MC-38 cells; assay: In vitro cytotoxicity, CCK-8 assay; type: cell-based, Murine; conditions: Mus musculus, 72 h, curcumin concentration
Description: The cytotoxicity of s-Cur, Cur/NCMs, and Cur/DCMs against MC-38 cells was determined by a CCK-8 assay. Briefly, MC-38 cells were cultured in RPMI1640 medium with 10% FBS, penicillin (100 U/mL), and streptomycin (100 µg/mL) for 24 h. Then, the cells were seeded in 96-well plates (Corning, NY) at 10,000 cells/well in 100 µL medium. After incubation for 24 h, the cells were exposed to s-Cur and equivalent amount of Cur/NCMs and Cur/DCMs to yield final curcumin concentrations from 0 to 65 µg/mL. For GSH triggered release experiments, adherent cells were incubated with 10 mM glutathione monoethyl ester (GSH-OEt) for 2 h before exposure to the curcumin formulations.
After incubation for 72 h, 10 μL CCK8 solution with 100 μL growth medium was added into each well and the cells were incubated for another 1 h. Then, the culture medium was added with 10 μL 1% SDS (dissolve 0.1 g SDS with PBS to obtain 10 mL solution) to stop the reaction, and reading on a Synergy HTX multi-mode reader (BioTek, Winooski, VT) at 450 nm. The cytotoxicity assay was performed in triplicate and the cell viability (%) was calculated with the following equation: (3) Cell viability=At−AB/Ac−AB×100% where At is the absorption value of samples, Ac is the absorption value of the control group, and AB is the absorption value of the blank group. […]

[4] = In vitro release of curcumin by dynamic dialysis method; type: physicochemical; conditions: 20% SDS release medium, 37 °C
Description: In order to evaluate the crosslinking effect, in vitro release profiles of curcumin from DMSO (s-Cur), Cur/NCMs, and Cur/DCMs were studied by dynamic dialysis method with 20% SDS solution as release medium. Lyophilized micelles were reconstituted and diluted to 1 mg/mL of curcumin with PBS (0.1 M, pH 7.4) then placed 1 mL into dialysis tube (MWCO 8000–14,000 Da). The tubes were dialyzed against 50 mL release medium at 37 ± 0.5 °C at a stirring speed of 100 rpm with or without 10 mM GSH. At predetermined time intervals, 1 mL of release medium was withdrawn and replenished with an equal volume of the fresh medium. The amount of curcumin released was determined by HPLC analysis as mentioned above. Cumulative release of curcumin was then calculated. The in vitro release studies were carried out in triplicate.

[5] = system: p-MEK1/2 and p-Erk1/2; assay: Western blot assay of p-MEK1/2 and p-Erk1/2 in MC-38 cells; type: cell-based, Murine; conditions: 10 h
Description: MC38 cells were lysed using whole protein extraction kit (KeyGEN BioTECH, Nanjing, China, KGP250). Protein concentration was determined using bicinchoninic acid (BCA) protein assay (KeyGEN BioTECH, Nanjing, China, KGPBCA). Protein extracts were electrophoresed in 10% SDS-PAGE and transferred to a nitrocellulose filter (NC) membrane, blocked by 5% skim milk at room temperature for 1 h, which was prepared in Tris-buffered saline with tween 20 (TBST). Then, the membranes were immunoblotted by primary antibodies. For detection, HRP-conjugated secondary antibodies (Ray Antibody Biotech, Beijing, China, RM2001L) and chemiluminescent HRP substrate kit (EpiZyme, Shanghai, China, SQ2O2) were used. As the molecular weight of the target bands is similar, the western blot fast stripping buffer (EpiZyme, Shanghai, China, PS107) was used. The following primary antibodies were used: anti-p-MEK1/2 (Cell Signaling Technology (CST), 41G9, Boston, MA), anti-p-Erk1/2 (CST, 197G2). The blots were quantified using ImageJ (National Institutes of Health, Bethesda, MD) and normalized to the control group.

concentration at 12 h ([1]; i.v. 20 mg/kg, after 12 h (detection limit), read-out: plasma curcumin level): < 1 ng/mL
concentration at 30 min ([1]; i.v. 20 mg/kg, within 30 min, read-out: plasma curcumin level): < 100 ng/mL
AUC(0-inf) ([1]; single dosage 20 mg/kg): 1970 ng·h/mL
AUC(0-t) ([1]; single dosage 20 mg/kg): 1960 ng·h/mL
Cmax ([1]; single dosage 20 mg/kg): 7120 ng/mL
half-life ([1]; single dosage 20 mg/kg): 83.4 min
clearance ([1]; single dosage 20 mg/kg, read-out: CLz (converted)): 170 mL/min/kg
MRT last ([1]; single dosage 20 mg/kg, read-out: MRT(0–t)): 9 min
MRT inf ([1]; single dosage 20 mg/kg, read-out: MRT(0–∞)): 9.6 min
Vd ([1]; single dosage 20 mg/kg, read-out: Vz): 20.4 L/kg
curcumin released ([4]; at 24 h): 75%
curcumin released ([4]; within the first 8 h): About 60%
SMILES: COc1cc(C=CC(=O)CC(=O)C=Cc2ccc(O)c(OC)c2)ccc1O [s-Cur, 1,7-bis(4-hydroxy-3-methoxyphenyl)-1,6-heptadiene-3,5-dione]
enhancement of the antitumor effects of anti-PD-1 [2]: not to be able to significantly enhance the antitumor effects of anti-PD-1
IC50 [3]: 13.7 µg/mL
expression of the proliferative marker proteins p-MEK1/2 and p-ERK1/2 [5]: significantly low expression
